Experiments:
Assay in all cases: relative viability (nuclei count vs DMSO), 5 days (fraction); higher = more cells survive
IDH-C35 + Lapatinib = compound: Cc1ccccc1C(C(=O)NC1CCCCC1)N(C(=O)Cn1ccnc1C)c1cccc(F)c1 [IDH-C35] + CS(=O)(=O)CCNCc1ccc(-c2ccc3ncnc(Nc4ccc(OCc5cccc(F)c5)c(Cl)c4)c3c2)o1 [Lapatinib] (partner 2 µM)
Outline: (§1)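 Relative viability divides the nuclei count in treated wells by that in vehicle wells. Lung cancer cell lines were seeded in 1536-well plates, dosed by pin tool the next day, and fixed and stained after 5 days in one step with final 0.05% Triton X-100, 1% formaldehyde and 1 ug/ml Hoechst. Dosing was a single drug or a fixed anchor-drug dose plus five library-drug doses (not always all listed) in √10 steps, and values are medians of duplicate plates imaged at 4×.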

IDH-C35 + AZD7762 = compound: Cc1ccccc1C(C(=O)NC1CCCCC1)N(C(=O)Cn1ccnc1C)c1cccc(F)c1 [IDH-C35] + NC(=O)Nc1cc(-c2cccc(F)c2)sc1C(=O)N[C@H]1CCCNC1 [AZD7762] (partner 0.2 µM)
Outline: as §1

IDH-C35 + Luminespib = compound: Cc1ccccc1C(C(=O)NC1CCCCC1)N(C(=O)Cn1ccnc1C)c1cccc(F)c1 [IDH-C35] + CCNC(=O)c1noc(-c2cc(C(C)C)c(O)cc2O)c1-c1ccc(CN2CCOCC2)cc1 [Luminespib] (partner 0.01 µM)
Outline: as §1

[1] = compound: CC1=C(C(=NN1)C)CC2=C(C3=C(S2)N(C(=O)N(C3=O)C)CC(C)C)C(=O)N4C[C@@H](CO4)O + COc1cccc2cc(-c3nc([C@H]4CC[C@H](C(=O)O)CC4)n4ncnc(N)c34)[nH]c12 [OSI-027] (partner 0.5 µM)
Outline: as §1

Cell Line | relative viability (IDH-C35 + Lapatinib; first compound 0.08 µM) | relative viability (IDH-C35 + Lapatinib; first compound 0.253 µM) | relative viability (IDH-C35 + Lapatinib; first compound 0.8 µM) | relative viability (IDH-C35 + Lapatinib; first compound 2.53 µM) | relative viability (IDH-C35 + Lapatinib; first compound 8 µM) | relative viability (IDH-C35 + AZD7762; first compound 0.08 µM) | relative viability (IDH-C35 + AZD7762; first compound 0.253 µM) | relative viability (IDH-C35 + AZD7762; first compound 0.8 µM) | relative viability (IDH-C35 + AZD7762; first compound 2.53 µM) | relative viability (IDH-C35 + AZD7762; first compound 8 µM) | relative viability (IDH-C35 + Luminespib; first compound 0.08 µM) | relative viability (IDH-C35 + Luminespib; first compound 0.253 µM) | relative viability (IDH-C35 + Luminespib; first compound 0.8 µM) | relative viability (IDH-C35 + Luminespib; first compound 8 µM) | relative viability ([1]; first compound 0.0025 µM) | relative viability ([1]; first compound 0.007906 µM) | relative viability ([1]; first compound 0.025 µM) | relative viability ([1]; first compound 0.07906 µM) | relative viability ([1]; first compound 0.25 µM) | relative viability (IDH-C35 + Luminespib; first compound 2.53 µM)
NCI-H596 | 1.01 | 1.04 | 1.11 | 1.16 | 1.06 | 0.959 | 1.14 | 1.01 | 1.05 | 1.26 | 1.04 | 0.974 | 1.22 | 0.97 | 0.721 | 0.822 | 0.889 | 0.803 | 0.715 | –
NCI-H647 | 1.01 | 1.08 | 0.999 | 1.09 | 0.86 | 0.489 | 0.488 | 0.424 | 0.42 | 0.418 | 0.146 | 0.256 | 0.357 | 0.126 | 0.727 | 0.805 | 0.805 | 0.769 | 0.569 | 0.241
NCI-H650 | 0.588 | 0.824 | 0.85 | – | 0.884 | 1.04 | 1.26 | 1.13 | – | 0.97 | 0.783 | 0.766 | 0.79 | 0.799 | 0.637 | 0.509 | 0.501 | 0.451 | 0.647 | –
NCI-H727 | 0.874 | 0.779 | 0.801 | 0.728 | 0.947 | 0.633 | 0.655 | 0.539 | 0.469 | 0.597 | 0.27 | 0.398 | 0.39 | 0.33 | 0.731 | 0.504 | 0.505 | 0.586 | 0.708 | 0.407
NCI-H838 | 1.21 | 1.07 | 0.882 | 1.02 | 1.02 | 1.09 | 0.922 | 0.918 | 0.953 | 0.925 | 0.319 | 0.3 | 0.266 | 0.24 | 0.396 | 0.451 | 0.409 | 0.384 | 0.387 | 0.331
NCI-H1355 | 1.03 | 0.976 | 0.945 | 0.97 | 0.934 | 0.805 | 0.889 | 0.715 | 0.72 | 0.657 | 0.703 | 0.72 | 0.693 | 0.72 | 0.458 | 0.441 | 0.425 | 0.464 | 0.39 | 0.722
NCI-H1395 | 1 | 0.928 | 1.08 | 1.09 | 0.891 | 0.396 | 0.408 | 0.407 | 0.446 | 0.403 | 0.757 | 0.655 | 0.744 | 0.714 | 0.658 | 0.603 | 0.409 | 0.578 | 0.58 | 0.763
NCI-H1437 | 0.942 | 0.807 | 0.776 | 0.904 | 0.812 | 1.09 | 1.12 | 1.17 | 1.06 | 1.08 | 1.08 | 1.04 | 1.06 | 1.1 | 0.894 | 0.892 | 0.867 | 0.93 | 0.857 | 1.06

From the supplement of paper PMC10307832
